In patent US12544365B2, “Pharmaceutical combination of an EP4 antagonist and immune checkpoint inhibitors for the treatment of tumours” (ROTTAPHARM BIOTECH S.R.L., priority 2019, dated 2026):

Columns and labels:
[1] = Stability of Form A at different humidity values and temperatures; type: physicochemical
Description: The stability of the Form A (named also as Compound 1) of the sodium salt of R)-4-(1-(6-(4-(trifluoromethyl)benzyl)-6-azaspiro[2.5]octane-5-carboxamido)cyclopropyl)benzoic acid at different humidity values and temperatures was investigated.

rat EP4R = target: T1, rat EP4R (Rattus norvegicus, UniProt P43114); test: Ex vivo TNF-α release induced by LPS in whole blood of orally dosed rats: PGE2 IC50 vs dose and time
T1 construct: whole blood culture samples from animals treated orally with vehicle or Compound 1; from tissue; host or cells: whole blood of male Wistar Han rats
T1 sequence (P43114 whole entry): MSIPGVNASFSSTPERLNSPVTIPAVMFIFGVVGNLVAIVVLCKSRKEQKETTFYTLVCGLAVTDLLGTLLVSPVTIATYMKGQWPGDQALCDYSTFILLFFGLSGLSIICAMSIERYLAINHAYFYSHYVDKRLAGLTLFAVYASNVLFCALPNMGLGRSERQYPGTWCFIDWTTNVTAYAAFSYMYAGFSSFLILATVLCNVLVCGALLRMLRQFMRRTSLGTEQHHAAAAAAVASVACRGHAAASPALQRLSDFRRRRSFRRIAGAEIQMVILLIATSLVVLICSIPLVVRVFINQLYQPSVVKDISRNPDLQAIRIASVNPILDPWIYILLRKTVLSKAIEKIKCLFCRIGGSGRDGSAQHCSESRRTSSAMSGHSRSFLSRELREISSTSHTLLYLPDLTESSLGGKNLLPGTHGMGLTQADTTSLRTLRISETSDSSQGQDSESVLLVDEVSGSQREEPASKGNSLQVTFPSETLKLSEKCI
Procedure: Male Wistar Han rats (250-300 g b.w., Charles River, Italy) were housed six per cage in a temperature controlled room, set to maintain temperature within the range of 20° C. ±2° C. and relative humidity within the range of 55%+10 and with a 12-h/12-h light/dark cycle. Throughout the study animals had free access to standard laboratory chow (Teklad rodent diet 2018, Harlan Laboratories, S. Pietro al Natisone, UD, Italy) and drinking water. Care and handling of the animals were in accordance with the guidelines of the Local Government and the regulations of the European Community.
Authorization for experimental procedures was granted by the Italian Ministry of Health. […]
In details the day of the experiments, animals were anaesthetized with 2.5-3% isoflurane in O2 inside an induction chamber and blood (in average 7 ml/rat) was drawn from the abdominal aorta. […] Compared to the reference standard curve, TNF-α levels in samples were expressed as concentration (pg/ml).
For each animal, percent of inhibition by different PGE2 concentrations with respect to control sample, and the corresponding IC50 (or the half-maximal inhibitory concentration in a range 0-100% inhibition) were calculated by linear regression analysis. Moreover, in each treatment group either the mean TNF-α levels and the mean % inhibition by PGE2 were calculated. […]

SMILES: O=C([O-])c1ccc(C2(NC(=O)[C@H]3CC4(CCN3Cc3ccc(C(F)(F)F)cc3)CC4)CC2)cc1.[Na+] [Compound 1, sodium (R)-4-(1-(6-(4-(trifluoromethyl)benzyl)-6-azaspiro[2.5]octane-5-carboxamido)cyclopropyl)benzoate]
- Stability ([1]; Powder, 50% RH −30° C.): Stable >24 hours
- Stability ([1]; Powder, 80° C.): Stable >5 days
- Stability ([1]; Powder, RT): Stable >1 month
- Stability ([1]; Sealed foil/Poly bag, 70% RH −40° C.): Stable >3 months
- reversion of PGE2 TNF-α release inhibition, time course (rat EP4R; 10 mg/kg oral, blood sampling 1-3-24 hours): still evident also 24 hours after Compound 1 administration
- minimum effective dose (rat EP4R; oral, rat, reversion of PGE2 inhibition of TNF-α release): 10 mg/kg
